# In patent US20220325242A1, “IDH2 INHIBITION FOR PRODUCING T-CELLS AND B-CELLS WITH A MEMORY PHENOTYPE” (Universite de Lausanne, priority 2019, published 2022):
# Legend:
# OT2 CD4 T cells = assay: CD62L flow cytometry of OT2 CD4 T cells activated by co-culture with dendritic cells; assay type: cell-based, mouse; conditions: 5 μM for 7 days, day 7, versus DMSO
# Excerpt: A new experiment has been performed on mouse T cells in order to further strengthen our claim that IDH2 inhibition also promotes memory marker expression in CD4 T cells. As indicated in the experimental scheme (FIG. 17A), we activated CD4 T cells from OT2 mice by co-culture with dendritic cells. OT2 mice are transgenic for an αβTCR recognizing specifically a chicken ovalbumine peptide 323-339 associated with the mouse MHC class II molecule I-A^b. We activated OT2 CD4 T cells by co-culture with dendritic cells loaded with […] of the ovalbumine peptide in the presence of 100 IU/ml recombinant human IL2 in the presence of 5 μM AG221 or DMSO control. After 4 days, cells were collected, washed and split, and brought back in culture with 100 IU/ml rhIL2 and 5 μM AG221 or DMSO control.
# [1] = system: transferred CD8+ CD45.1+ OT1 T-cells; assay: Phenotype of adoptively transferred OT1 CD8+ T-cells in blood of B16-OVA tumor-bearing mice; assay type: in vivo, mouse
# Excerpt: Antibody panel to determine the frequency and differentiation and activation state of adoptively transferred T-cells in the blood (see Example 6): CD8-PE-texas-Red, CD45.1-Pacific blue, CD45.2-FITC, CD127-PE, KLRG1-PE-Cy7, CD62L-APC, CD44-APC-Cy7, and CD27-PerCP-Cy5.5.
# Example 5. In vivo tumor model to characterize the phenotype and efficacy of cultured CD8+ T-cells upon adoptive cell transfer. An in vivo tumor model was used to determine the efficacy of in vitro cultured CD8+ T-cells treated with an IDH2 inhibitor in eliminating cancer cells (FIG. 10). B16-OVA melanoma cells (see Example 1) were cultured in DMEM (GIBCO) with 10% FCS and 1% P/S before their subcutaneous injection into the mouse flank. Each mouse received 100′000 cells in a volume of 200 μl of PBS. 6 days after B16-OVA cell injection, tumors were measured, mice were randomized and lymphodepleted by irradiation (5 Gray). 7 days after B16-Ova cell injection, mice were adoptively transferred with activated CD45.1^+ OT-1 splenocytes. The CD45.1^+ OT-1 splenocytes had been cultured in vitro for 7 days as described in Example 2, wherein the IDH2 inhibitor was AG221, collected and purified on a Ficoll gradient to separate dead and live splenocytes. Live splenocytes, almost exclusively consisting of CD8+ T-cells (about 98%), were counted with Trypan blue stain 0.4%. 100′000 live splenocytes were transferred into CD45.2^+ host mice by tail vein injection.
# Following the adoptive cell transfer (ACT), mice received a vaccination of CpG (50 μg/mouse) and N4 Ova peptide (10 μg/mouse) diluted in PBS to obtain a total volume of 100 μl/mouse, injected subcutaneously at the tail base to further stimulate the transferred cells. An additional no-ACT control group received only a PBS injection (neither cells, CpG nor peptide). Tumors were measured every 2 days with a digital caliper and the tumor volume was calculated according to the formula: V=π×[d2×D]/6, wherein d is the smallest tumor axis and D is the largest tumor axis.
# Example 6. Maintenance of the CD8+ T-cell memory phenotype in vivo. Blood samples were collected at day 14 and day 18 post tumor engraftment (see Example 5). […] Transferred CD8+ T-cells were CD8^+ and CD45.1^+. Among those, MPECs were KLRG1^low and CD127^+, SLECs were KLRG1^high and CD127^−, and TCM were CD44^+ and CD62L^+.
# [2] = system: histone H3 (H3K4-3Me, H3K27-Ac) in OT1 T-cells; assay: Western blot of histone H3 modifications in OT1 T-cells; assay type: cell-based, mouse; conditions: day 7, 5 μM day 0-3, western blot, versus DMSO
# Description: Methods: OT1 splenocytes were activated and cultured with 5 μM AG221 or DMSO as described in Example 2. After 3 days, the cells were washed and the IDH2 inhibitor was washed out as well. The cells were then cultured for an additional 4 days in the absence of AG221. At day 7, the cells were collected and washed once with PBS. 50′000 cells were collected for ATAC-seq while the remaining cell pellet was lysed in extraction buffer (20 mM Tris HCl, 150 mM NaCl, 1% Triton X-100, 10% glycerol, 5 mM EDTA) supplemented with Complete Mini protease inhibitor (Roche) for wester blotting.
# For western blotting, an equal amount of protein (as measure by the BCA protein assay kit, Thermo Scientific) was size-separated on a 12.5% polyacrylamide gel and transferred to a 0.2 μm nitrocellulose membrane (Bio-Rad). The following antibodies were used: β-Actin (AC-74) from Sigma Aldrich, H3K4-trimethyl (C42D8) and H3K27-acetyl (D5E4) from Cell Signaling, and appropriate HRP-labelled secondary antibodies (Santa Cruz). The signal was visualized with ECLTM Select Western Blotting Detection Reagent from Sigma Aldrich or SuperSignal West Femto Maximum Sensitivity Substrate from Thermo Scientific and acquired by the Fusion FX from Vilber.
# [3] = day 14, compared to DMSO control
smiles,measurement,setting,value
"CC(C)(O)CNc1nc(Nc2ccnc(C(F)(F)F)c2)nc(-c2cccc(C(F)(F)F)n2)n1 [AG221, 2-methyl-1-[[4-[6-(trifluoromethyl)pyridin-2-yl]-6-[[2-(trifluoromethyl)pyridin-4-yl]amino]-1,3,5-triazin-2-yl]amino]propan-2-ol]",CD62L-positive population of CD4 T cells,OT2 CD4 T cells,strong increase
same,frequency of transferred T-cells,"[1]; day 14 (day 7 post ACT), cells treated in vitro before ACT, versus DMSO",significantly higher
same,proportion of central memory T cells (TCM) within transferred CD8+ T-cells,[1]; [3],significantly higher
same,proportion of memory precursor effector cells (MPECs) within transferred CD8+ T-cells,[1]; [3],significantly higher
same,proportion of short-lived effector cells (SLECs) within transferred CD8+ T-cells,[1]; [3],significantly lower
same,acetylation of lysine residue 27 of histone H3,[2],increased
same,trimethylation of lysine residue 4 of histone H3,[2],increased
